According to ChEMBL document CHEMBL1201862, “PubChem BioAssay data set” (2004):
The source made the active and inactive calls.

Legend:
[1] = target: Melanin-concentrating hormone receptor 1 (Homo sapiens, UniProt Q99705); assay: Fluorescence-based counterscreen for antagonists of the G-protein coupled receptor 7 (GPR7): cell-based high throughput dose response assay to identify antagonists of the melanin-concentrating hormone receptor 1 (MCHR1).; assay type: functional
[2] = target: Lysosomal acid glucosylceramidase (Homo sapiens, UniProt P04062); assay: Dose response cell-based high throughput screening assay to identify enhancers of beta-glucosidase activity. [Related pubchem assays: 784 ]; assay type: functional
[3] = target: T1, Type-1 angiotensin II receptor (Homo sapiens, UniProt P30556); assay: AT1 receptor antagonists, dose response, selectivity assay for APJ receptor antagonist project, cell-based, uHTS hits (AID 463214); assay type: functional;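 further: antagonist potency against angiotensin II stimulated AT1 response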
T1 sequence (P30556 whole entry): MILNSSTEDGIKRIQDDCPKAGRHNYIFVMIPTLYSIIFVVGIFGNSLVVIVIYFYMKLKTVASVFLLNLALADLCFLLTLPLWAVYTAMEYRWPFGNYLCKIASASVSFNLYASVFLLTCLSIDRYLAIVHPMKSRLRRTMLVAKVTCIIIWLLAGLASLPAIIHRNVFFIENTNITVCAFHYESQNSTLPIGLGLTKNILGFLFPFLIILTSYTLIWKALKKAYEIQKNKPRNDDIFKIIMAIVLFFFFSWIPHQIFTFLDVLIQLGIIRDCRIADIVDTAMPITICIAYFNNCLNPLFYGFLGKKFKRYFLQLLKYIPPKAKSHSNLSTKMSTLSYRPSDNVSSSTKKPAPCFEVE

[4] = target: Sphingosine 1-phosphate receptor 1 (Homo sapiens, UniProt P21453); assay type: functional;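 further: Tango beta-arrestin reporter U2OS cells stimulated with S1P near its EC80; inhibitor potency meaning antagonism of receptor activation by the natural agonist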
Sphingosine 1-phosphate receptor 1, sequence (P21453 whole entry): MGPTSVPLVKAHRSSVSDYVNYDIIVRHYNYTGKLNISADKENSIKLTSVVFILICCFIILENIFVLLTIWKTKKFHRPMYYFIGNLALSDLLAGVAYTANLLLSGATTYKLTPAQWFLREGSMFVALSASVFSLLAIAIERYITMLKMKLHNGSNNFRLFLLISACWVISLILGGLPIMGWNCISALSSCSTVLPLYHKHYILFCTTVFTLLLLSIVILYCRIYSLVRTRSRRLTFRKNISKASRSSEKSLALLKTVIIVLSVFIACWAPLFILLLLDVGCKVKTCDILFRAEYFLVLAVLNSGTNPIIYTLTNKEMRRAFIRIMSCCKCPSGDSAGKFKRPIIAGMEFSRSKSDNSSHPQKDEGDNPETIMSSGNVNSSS

[5] = target: Sphingosine 1-phosphate receptor 2 (Homo sapiens, UniProt O95136); assay: Dose Response Cell Based Assay for Antagonists of the S1P2 Receptor. [Related pubchem assays: 856, 736 ]; assay type: functional
Sphingosine 1-phosphate receptor 2, sequence (O95136 whole entry): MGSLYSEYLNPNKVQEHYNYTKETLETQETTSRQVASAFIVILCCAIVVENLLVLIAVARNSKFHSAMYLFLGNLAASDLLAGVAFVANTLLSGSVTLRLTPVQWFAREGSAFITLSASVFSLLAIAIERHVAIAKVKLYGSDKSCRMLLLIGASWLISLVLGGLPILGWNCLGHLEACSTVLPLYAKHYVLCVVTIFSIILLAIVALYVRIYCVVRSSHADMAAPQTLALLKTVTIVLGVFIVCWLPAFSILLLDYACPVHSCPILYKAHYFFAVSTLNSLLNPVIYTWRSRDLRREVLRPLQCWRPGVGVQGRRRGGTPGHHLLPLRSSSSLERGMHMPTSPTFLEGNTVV

[6] = target: G2/mitotic-specific cyclin-B1 (Homo sapiens, UniProt P14635); assay: Counterscreen assay for inhibitors of Wee1 degradation: dose response cell-based assay to identify inhibitors of cyclin B degradation. [Related pubchem assays: 1410, 1321 ]; assay type: functional
G2/mitotic-specific cyclin-B1, sequence (P14635 whole entry): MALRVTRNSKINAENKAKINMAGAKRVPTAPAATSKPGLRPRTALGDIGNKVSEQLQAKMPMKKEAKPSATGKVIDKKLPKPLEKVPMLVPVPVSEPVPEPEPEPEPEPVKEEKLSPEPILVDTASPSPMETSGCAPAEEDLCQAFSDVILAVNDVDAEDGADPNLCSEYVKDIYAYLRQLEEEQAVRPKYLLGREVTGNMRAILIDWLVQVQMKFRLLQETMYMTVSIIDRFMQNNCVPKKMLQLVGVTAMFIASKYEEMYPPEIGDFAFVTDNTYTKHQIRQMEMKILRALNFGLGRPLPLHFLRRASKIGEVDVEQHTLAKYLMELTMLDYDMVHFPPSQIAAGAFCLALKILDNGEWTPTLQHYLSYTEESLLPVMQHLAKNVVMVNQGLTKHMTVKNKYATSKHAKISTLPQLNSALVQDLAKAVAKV

[7] = microbe, parasite or virus in culture; assay type: functional; settings: Mycobacterium tuberculosis
[8] = cytotoxicity in HEK-293T cells, dose response, cytotoxicity control for TCR NF-kB inhibitor project, luminescence, T-cell screen hits (AID 489026); assay type: functional, cell-based;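 further: cells exposed to compound about 14 hours before the viability readout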
INS1 = assay: beta cell apoptosis inhibitors, cytokine rescue, dose response, luminescence, retest (AID 449756); assay type: functional, cell-based; settings: Rattus norvegicus;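 further: cell death triggered by IL-1 beta plus TNF-alpha plus IFN-gamma mixture; protective hits raise ATP signal compared with cytokine alone wells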
Beta-galactosidase = Beta-galactosidase (Escherichia coli, UniProt Q8VNN2); assay: PubChem AID 485352; assay type: functional
Beta-galactosidase, sequence (Q8VNN2 whole entry): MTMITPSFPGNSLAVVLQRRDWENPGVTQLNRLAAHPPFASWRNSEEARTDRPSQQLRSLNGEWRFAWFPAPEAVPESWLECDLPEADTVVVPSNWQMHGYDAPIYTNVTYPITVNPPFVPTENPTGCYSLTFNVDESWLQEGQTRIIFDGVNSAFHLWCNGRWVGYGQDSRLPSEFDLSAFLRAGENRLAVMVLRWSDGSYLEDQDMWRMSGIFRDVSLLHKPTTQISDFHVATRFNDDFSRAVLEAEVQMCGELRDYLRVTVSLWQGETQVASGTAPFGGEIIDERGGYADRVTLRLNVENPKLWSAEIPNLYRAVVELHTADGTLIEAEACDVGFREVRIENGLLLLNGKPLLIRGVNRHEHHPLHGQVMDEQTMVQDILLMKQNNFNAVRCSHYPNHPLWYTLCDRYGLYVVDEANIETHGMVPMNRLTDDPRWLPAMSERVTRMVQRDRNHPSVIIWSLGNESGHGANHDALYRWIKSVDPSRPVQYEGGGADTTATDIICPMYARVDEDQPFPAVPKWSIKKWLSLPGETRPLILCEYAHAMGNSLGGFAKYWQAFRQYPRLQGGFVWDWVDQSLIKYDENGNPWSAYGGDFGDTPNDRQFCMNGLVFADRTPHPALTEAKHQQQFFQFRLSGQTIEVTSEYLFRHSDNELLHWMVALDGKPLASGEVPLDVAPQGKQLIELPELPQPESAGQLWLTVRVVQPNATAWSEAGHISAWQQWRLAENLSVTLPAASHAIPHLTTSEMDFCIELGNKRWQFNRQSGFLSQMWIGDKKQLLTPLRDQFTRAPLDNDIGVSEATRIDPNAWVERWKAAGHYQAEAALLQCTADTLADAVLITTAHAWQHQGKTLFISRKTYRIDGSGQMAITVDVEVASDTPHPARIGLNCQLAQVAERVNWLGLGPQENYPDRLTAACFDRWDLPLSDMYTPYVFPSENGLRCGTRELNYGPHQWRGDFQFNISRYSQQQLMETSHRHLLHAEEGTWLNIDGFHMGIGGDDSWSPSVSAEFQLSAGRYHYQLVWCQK

[9] = target: Sphingosine 1-phosphate receptor 4 (Homo sapiens, UniProt O95977); assay: Fluorescence dose response cell-based high throughput screening assay for antagonists of the Sphingosine 1-Phosphate Receptor 4 (S1P4). [Related pubchem assays: 1524 (Confirmation in triplicates.), 1510 (Primary screen.)]; assay type: functional
Sphingosine 1-phosphate receptor 4, sequence (O95977 whole entry): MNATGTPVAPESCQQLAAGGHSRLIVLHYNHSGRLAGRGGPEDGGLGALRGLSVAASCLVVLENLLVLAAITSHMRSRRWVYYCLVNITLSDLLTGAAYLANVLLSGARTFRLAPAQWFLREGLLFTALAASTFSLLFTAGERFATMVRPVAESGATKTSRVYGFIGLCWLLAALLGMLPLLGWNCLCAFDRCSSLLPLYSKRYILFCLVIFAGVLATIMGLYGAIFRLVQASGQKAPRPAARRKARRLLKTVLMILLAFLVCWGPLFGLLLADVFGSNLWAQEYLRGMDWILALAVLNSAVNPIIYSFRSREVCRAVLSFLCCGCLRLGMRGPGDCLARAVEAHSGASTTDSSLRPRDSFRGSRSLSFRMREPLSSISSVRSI

[10] = target: T2, Heat shock factor protein 1 (Mus musculus, UniProt P38532); assay: inhibition of MG132-induced HSE-luciferase signal, confirmation, cell-based, NIH3T3, luminescence, dose retest (AID 2382); assay type: functional;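 further: NIH3T3 fibroblasts with HSF1-driven luciferase reporter stressed by proteasome inhibitor MG132; luminescence from HSF1-driven luciferase expression after 8 hours of MG132 stress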
T2 sequence (P38532 whole entry): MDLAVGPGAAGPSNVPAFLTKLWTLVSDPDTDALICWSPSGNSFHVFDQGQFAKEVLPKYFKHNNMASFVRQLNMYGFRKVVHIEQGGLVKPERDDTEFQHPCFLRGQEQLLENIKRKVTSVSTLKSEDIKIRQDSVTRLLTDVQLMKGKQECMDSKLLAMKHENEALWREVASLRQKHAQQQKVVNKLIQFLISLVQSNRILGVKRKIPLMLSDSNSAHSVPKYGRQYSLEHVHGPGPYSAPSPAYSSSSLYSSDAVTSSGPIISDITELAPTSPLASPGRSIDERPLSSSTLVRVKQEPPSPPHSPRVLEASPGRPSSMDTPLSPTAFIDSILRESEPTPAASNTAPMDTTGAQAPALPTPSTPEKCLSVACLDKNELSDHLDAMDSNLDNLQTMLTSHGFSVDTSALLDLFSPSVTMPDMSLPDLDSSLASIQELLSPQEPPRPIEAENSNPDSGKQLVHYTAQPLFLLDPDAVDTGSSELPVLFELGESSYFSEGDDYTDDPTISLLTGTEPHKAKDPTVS

HeLa = assay: Cytotoxicity counterscreen assay for transcriptional activators of heat shock protein 70 (Hsp70). [Related pubchem assays: 1203, 1252 ]; assay type: functional; settings: Homo sapiens
Wee1-like protein kinase = Wee1-like protein kinase (Homo sapiens, UniProt P30291); assay: Dose Response Cell-based Assay for Inhibitors of Wee1 Degradation. [Related pubchem assays: 1410, 1321 ]; assay type: functional
BJ [11] = assay: cytotoxicity toward Ras-transformed BJeLR fibroblasts, dose response, cell-based, alamar blue fluorescence, cherrypicked samples (AID 2631); assay type: functional; settings: Homo sapiens;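 further: confirmatory dose-response assay in RAS-dependent BJ fibroblasts engineered with TERT, LT and ST, with cytotoxicity read by fluorescence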
[12] = NIH-3T3 fibroblast cytotoxicity, dose response, cytotoxicity control, cell-based, fluorescence, Alamar Blue, secondary assay (AID 2327); assay type: functional;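 further: NIH-3T3 mouse fibroblasts cultured with fluconazole at 8 µg/mL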
[13] = inhibitors of SNCA 5'UTR-driven translation, confirmation, luminescence, H4 neuroglioblastoma cells, dose confirmation (AID 2454); assay type: functional, cell-based;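 further: H4 neuroglioblastoma cells carrying an alpha-synuclein 5'UTR luciferase reporter; potency for inhibition of the luciferase signal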
BJ [14] = assay: cytotoxicity toward BJ-TERT fibroblasts, dose response, cell-based, RAS-independent, luminescence (AID 1933); assay type: functional; settings: Homo sapiens
[15] = target: Nucleotide-binding oligomerization domain-containing protein 2 (Homo sapiens, UniProt Q9HC29); assay: NOD2 signaling inhibitors, cell-based, luminescence, uHTS, HEK293 (AID 1566); assay type: functional
Nucleotide-binding oligomerization domain-containing protein 2, sequence (Q9HC29 whole entry, the tested form may be a part): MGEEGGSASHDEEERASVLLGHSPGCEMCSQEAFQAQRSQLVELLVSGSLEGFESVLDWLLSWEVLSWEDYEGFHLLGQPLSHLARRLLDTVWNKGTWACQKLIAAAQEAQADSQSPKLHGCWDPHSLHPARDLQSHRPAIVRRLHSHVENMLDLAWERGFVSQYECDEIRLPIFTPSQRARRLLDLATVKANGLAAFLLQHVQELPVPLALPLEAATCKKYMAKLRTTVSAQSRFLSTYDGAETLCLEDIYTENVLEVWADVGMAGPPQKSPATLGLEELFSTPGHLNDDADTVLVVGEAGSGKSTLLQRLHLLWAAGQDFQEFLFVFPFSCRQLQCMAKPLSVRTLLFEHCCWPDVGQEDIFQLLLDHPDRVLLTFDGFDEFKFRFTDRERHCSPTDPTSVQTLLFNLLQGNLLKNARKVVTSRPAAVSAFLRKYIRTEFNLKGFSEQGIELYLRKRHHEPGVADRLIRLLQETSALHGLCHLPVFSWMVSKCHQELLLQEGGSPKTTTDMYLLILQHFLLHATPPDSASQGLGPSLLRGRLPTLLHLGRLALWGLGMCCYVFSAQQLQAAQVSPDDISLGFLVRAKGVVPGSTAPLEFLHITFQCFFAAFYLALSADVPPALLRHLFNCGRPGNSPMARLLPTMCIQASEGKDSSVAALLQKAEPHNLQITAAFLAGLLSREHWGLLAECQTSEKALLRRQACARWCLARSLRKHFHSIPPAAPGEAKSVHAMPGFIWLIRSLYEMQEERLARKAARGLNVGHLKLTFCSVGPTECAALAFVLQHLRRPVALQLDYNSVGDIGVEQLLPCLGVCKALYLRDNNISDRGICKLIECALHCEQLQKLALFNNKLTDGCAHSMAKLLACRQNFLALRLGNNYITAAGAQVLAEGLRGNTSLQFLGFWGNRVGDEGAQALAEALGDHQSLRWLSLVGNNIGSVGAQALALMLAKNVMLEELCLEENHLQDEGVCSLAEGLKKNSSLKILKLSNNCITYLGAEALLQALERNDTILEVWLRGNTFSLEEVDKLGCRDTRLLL

HEK293 [16] = assay: cells; assay type: functional, cell-based; settings: Homo sapiens
HEK293 [17] = assay: NOD1 signaling inhibitors, primary screen, cell-based, luminescence, uHTS (AID 1578); assay type: functional; settings: Homo sapiens
HEK293 [18] = assay: cells; assay type: functional, cell-based; settings: Homo sapiens; remark: listed apart in the source
cells = assay type: functional, cell-based
[19] = cytotoxicity toward DRD oncogenic fibroblasts, dose response, cell-based, non-viral oncogenic, luminescence (AID 1934); assay type: functional; settings: Homo sapiens
[20] = inhibitors of SNCA 5'UTR-driven reporter translation, confirmation, H4 neuroglioma cells, luminescence (AID 1988); assay type: functional, cell-based
[21] = luciferase reporter signal reduction – luminescence, H4-C neuroglioblastoma cells, dose response (AID 2458); assay type: functional, cell-based;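 further: H4 neuroglioblastoma cells stably carrying a luciferase reporter gene fusion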
[22] = inhibitors of firefly luciferase expression or activity, dose response, H4 neuroglioma cells, luminescence (AID 1990); assay type: functional, cell-based
[23] = Luminescence Cell-Based Dose Response HTS to Identify Inhibitors of 5'UTR Stem-Loop Driven Prion Protein mRNA Translation in H4 Neuroglioblastoma Cells. [Related pubchem assays: 1827 (Project Summary), 1813 (Primary HTS)]; assay type: functional
BJ [24] = assay: cytotoxicity toward BJ-TERT-LT-ST fibroblasts, dose response, cell-based, RAS-independent, luminescence (AID 1935); assay type: functional; settings: Homo sapiens;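 further: BJ fibroblasts immortalized with TERT plus LT and ST oncogenes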
[25] = C. albicans growth with fluconazole, confirmation, fluorescence, retest (AID 2467); assay type: functional, cell-based
HEK293 [26] = assay: cells; assay type: functional, cell-based; settings: Homo sapiens; remark: listed apart in the source
BJ [27] = assay: cells; assay type: functional, cell-based; settings: Homo sapiens
HEK293 [28] = assay: NOD2 signaling inhibitors in MDP-stimulated cells, cell-based, uHTS, luminescence (AID 2001); assay type: functional; settings: Homo sapiens
[29] = target: T3, Serine/threonine-protein phosphatase (Candida dubliniensis (strain CD36 / CBS 7987 / NCPF 3949 / NRRLY-17841) (Yeast), UniProt B9W6M3); assay: calcineurin pathway inhibitors in yeast reporter, dose response, S. cerevisiae, CDRE-lacZ, luminescence, secondary (AID 2388); assay type: functional, cell-based;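 further: yeast reporter cells carrying a calcineurin-responsive lacZ construct stimulated with calcium chloride; luminescent beta-galactosidase reporter signal in whole cells rather than isolated phosphatase activity; potency for inhibition where a drop in reporter signal means calcineurin blockade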
T3 sequence (B9W6M3 whole entry): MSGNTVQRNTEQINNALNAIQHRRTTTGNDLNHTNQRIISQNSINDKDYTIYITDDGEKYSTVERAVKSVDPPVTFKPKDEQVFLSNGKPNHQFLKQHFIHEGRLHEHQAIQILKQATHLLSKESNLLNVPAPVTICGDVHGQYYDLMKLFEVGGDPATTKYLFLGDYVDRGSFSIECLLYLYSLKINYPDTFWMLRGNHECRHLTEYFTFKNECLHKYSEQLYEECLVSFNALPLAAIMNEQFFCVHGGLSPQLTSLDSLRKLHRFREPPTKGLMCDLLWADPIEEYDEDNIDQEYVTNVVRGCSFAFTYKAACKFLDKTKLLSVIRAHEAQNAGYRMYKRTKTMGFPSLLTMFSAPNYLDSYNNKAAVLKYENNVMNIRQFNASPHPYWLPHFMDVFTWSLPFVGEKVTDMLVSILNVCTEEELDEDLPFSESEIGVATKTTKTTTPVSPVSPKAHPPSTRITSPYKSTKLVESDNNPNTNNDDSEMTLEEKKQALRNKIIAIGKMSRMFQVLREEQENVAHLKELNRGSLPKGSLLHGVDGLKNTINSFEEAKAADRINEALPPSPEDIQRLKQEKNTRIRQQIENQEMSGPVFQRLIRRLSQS

[30] = target: ATP-dependent molecular chaperone HSP82 (Candida albicans (strain WO-1) (Yeast), UniProt C4YTQ8); assay: loss of DOC-induced GRE-beta-galactosidase reporter signal, dose response, Hsp90 inhibitor project, S. cerevisiae, luminescence (AID 2400); assay type: functional, cell-based;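 further: beta-galactosidase luminescence from glucocorticoid response element reporter as proxy for Hsp90 function; inhibitor potency where signal loss means Hsp90 inhibition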
ATP-dependent molecular chaperone HSP82, sequence (C4YTQ8 whole entry): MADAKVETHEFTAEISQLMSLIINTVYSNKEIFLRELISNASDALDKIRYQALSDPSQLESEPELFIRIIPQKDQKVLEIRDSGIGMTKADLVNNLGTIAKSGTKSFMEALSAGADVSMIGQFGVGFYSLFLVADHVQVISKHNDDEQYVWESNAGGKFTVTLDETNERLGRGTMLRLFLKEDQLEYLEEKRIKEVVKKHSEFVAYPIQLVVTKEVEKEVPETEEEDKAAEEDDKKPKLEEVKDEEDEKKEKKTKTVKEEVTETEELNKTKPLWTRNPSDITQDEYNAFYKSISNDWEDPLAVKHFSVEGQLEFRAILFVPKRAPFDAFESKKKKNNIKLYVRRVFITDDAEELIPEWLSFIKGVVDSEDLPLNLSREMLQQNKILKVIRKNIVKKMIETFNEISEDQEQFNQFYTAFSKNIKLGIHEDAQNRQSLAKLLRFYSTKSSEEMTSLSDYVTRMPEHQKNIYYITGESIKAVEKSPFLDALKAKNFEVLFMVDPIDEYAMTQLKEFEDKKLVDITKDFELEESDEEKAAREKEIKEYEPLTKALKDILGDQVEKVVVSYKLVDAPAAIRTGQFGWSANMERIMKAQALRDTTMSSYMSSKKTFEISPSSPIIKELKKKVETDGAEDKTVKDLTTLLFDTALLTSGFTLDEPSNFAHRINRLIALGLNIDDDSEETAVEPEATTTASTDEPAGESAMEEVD

[31] = target: Voltage-gated N-type calcium channel alpha-1B subunit/Amyloid beta A4 precursor protein-binding family A member 1 (Homo sapiens, UniProt Q00975+Q02410); assay: disruptors of Mint-PDZ/N-type channel peptide interaction – biochemical, HTRF, set 2, SAR follow-up (AID 434980); assay type: functional
Aspartyl aminopeptidase = Aspartyl aminopeptidase (Plasmodium falciparum 3D7, UniProt Q8I2J3)
Bcl-2-like protein 1 = Bcl-2-like protein 1 (Homo sapiens, UniProt Q07817); assay: BCL-XL inhibitors, dose response, selectivity assay for MCL1 inhibitor project, biochemical, fluorescence polarization, 1536-well (AID 2218)
Bcl-2-like protein 1, sequence (Q07817 whole entry): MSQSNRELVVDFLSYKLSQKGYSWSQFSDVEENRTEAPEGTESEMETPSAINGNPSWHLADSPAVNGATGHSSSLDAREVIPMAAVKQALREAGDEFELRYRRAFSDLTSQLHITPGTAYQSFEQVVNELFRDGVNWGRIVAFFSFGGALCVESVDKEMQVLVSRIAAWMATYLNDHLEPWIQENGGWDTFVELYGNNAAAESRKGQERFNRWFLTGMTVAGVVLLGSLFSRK

Procathepsin L = Procathepsin L (Homo sapiens, UniProt P07711)
[32] = target: Induced myeloid leukemia cell differentiation protein Mcl-1 (Homo sapiens, UniProt Q07820); assay: MCL1-BIM BH3 interaction inhibitors, dose response, biochemical, fluorescence polarization, BIM-BH3 peptide, 1536-well (AID 2217)

Melanin-concentrating hormone receptor 1, sequence (Q99705 whole entry): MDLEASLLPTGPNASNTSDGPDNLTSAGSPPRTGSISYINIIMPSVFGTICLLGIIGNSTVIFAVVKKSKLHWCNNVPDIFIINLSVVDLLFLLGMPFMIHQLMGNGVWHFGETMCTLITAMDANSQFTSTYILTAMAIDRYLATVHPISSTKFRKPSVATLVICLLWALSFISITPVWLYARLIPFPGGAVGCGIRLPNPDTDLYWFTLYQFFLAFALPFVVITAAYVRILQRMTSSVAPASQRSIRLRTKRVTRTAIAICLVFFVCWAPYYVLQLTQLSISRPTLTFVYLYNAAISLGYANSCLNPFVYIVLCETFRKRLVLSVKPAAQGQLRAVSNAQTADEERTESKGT

## CCN1CCN(C(=O)c2ccc3c(c2)N(Cc2ccc(C)cc2)CCS3)CC1
[1]
  IC50: > 14.6 µM (not active)

## O=C(O)c1ccc2c(c1)C(c1ccccc1)OC2=O (stereo not given)
[2]
  EC50: > 10 µM (not active)

## CCCCS(=O)(=O)/C=C\C=C/S(=O)(=O)CCCC
[3]
  IC50: 3.67 µM (active)
[4]
  IC50: 13.7 µM (not active)
[5]
  IC50: 4.5 µM (active)
[6]
  EC50: > 5.53 µM (active)
[7]
  CC50: 3.13 µM (active)
[8]
  IC50: 52.6 µM (inactive)
INS1
  AC50: 3.25 µM (active)
Beta-galactosidase
  EC50: > 40 µM (inactive)
[9]
  IC50: 1.28 µM (active)
[10]
  EC50: 3.04 µM (active)
HeLa
  CC50: 9.43 µM (active)
Wee1-like protein kinase
  EC50: > 49.7 µM (not active)

## COc1ccc(-c2nnc(NC(=O)c3ccc(S(=O)(=O)N4CCc5ccccc5C4)cc3)o2)cc1
BJ [11]
  EC50: 9.02 µM (active)
[12]
  EC50: > 150 µM (inactive)
[13]
  EC50: > 12 µM (not active)
BJ [14]
  EC50: 92.6 µM (active)
[15]
  EC50: > 20 µM (inactive)
HEK293 [16]
  IC50: > 20 µM (inactive)
HEK293 [17]
  EC50: > 20 µM (inactive)
HEK293 [18]
  IC50: > 20 µM (inactive)
cells
  EC50: > 12 µM (not active)
[19]
  EC50: 90.3 µM (active)
[20]
  EC50: 0.139 µM (active)
[21]
  EC50: > 12 µM (not active)
[22]
  EC50: < 0.1 µM (active)
[23]
  EC50: < 0.1 µM (active)
BJ [24]
  EC50: > 150 µM (inconclusive)
[25]
  EC50: 0.256 µM (active)
HEK293 [26]
  IC50: > 20 µM (inactive)
BJ [27]
  EC50: 132 µM (inconclusive)
HEK293 [28]
  IC50: 19.6 µM (inactive)
[29]
  EC50: > 180 µM (inactive)
[30]
  EC50: > 150 µM (inactive)

## O=C(c1cc(-c2ccco2)nc2ccccc12)N1CCC(c2ccccc2)CC1
[31]
  IC50: > 56.8 µM (inactive)

## CC(C)n1c(SCC(=O)Nc2nncs2)nnc1-c1ccco1
Aspartyl aminopeptidase
  IC50: 4.68 µM (active)
Bcl-2-like protein 1
  IC50: > 109 µM (not active)
Procathepsin L
  IC50: > 59.6 µM (not active)
[32]
  IC50: 18.1 µM (not active)
